Experimental data from US20130078287A1 (Horizon Pharma USA, Inc., priority 2010, published 2013).
Marks after values point to notes of the source that are not given here.

How the values were obtained:
[1] = test system: subjects expected to require daily NSAID therapy; experiment: REDUCE-1 study: endoscopically diagnosed gastric, duodenal and UGI ulcers; format: in vivo, human; settings: for Proportion of subjects with Duodenal Ulcer / Proportion of subjects with Gastric Ulcer / Proportion of subjects with UGI Ulcer / UGI Ulcer: Subjects with Low-dose Aspirin Use / UGI Ulcer: Subjects with Prior Ulcer: REDUCE-1, 24 weeks
Experimental: (§1) Subjects were deemed a treatment failure and terminated early from the study in the event they developed an endoscopically diagnosed UGI ulcer. Subjects who terminated early for reasons other than development of an endoscopically diagnosed UGI ulcer were to undergo an endoscopic examination at a termination visit that was conducted as soon as possible after administration of their final dose of study drug. The predefined population for primary analyses of ulcers was all subjects with ≧1 follow-up study endoscopy.

[2] = test system: subjects expected to require daily NSAID therapy; experiment: REDUCE-2 study: adverse events
Text: Randomization was stratified based on aspirin/anticoagulant therapy and prior ulcer history.
Secondary endpoints were gastric ulcers, duodenal ulcers, and serious GI complications.

[3] = test system: subjects expected to require daily NSAID therapy; experiment: REDUCE-2 study: endoscopically diagnosed UGI, gastric and duodenal ulcers; format: in vivo, human
Experimental: as §1

[4] = crude proportion, listed as ibuprofen
[5] = life table estimate, listed as ibuprofen
[6] = REDUCE-1, early drop-outs imputed as treatment failures
[7] = REDUCE-2, 24 weeks, crude proportion
[8] = REDUCE-2, 24 weeks, crude proportion, listed as ibuprofen
[9] = REDUCE-2, 24 weeks, life table estimate
[10] = REDUCE-2, 24 weeks, life table estimate, listed as ibuprofen
[11] = REDUCE-2, early terminations imputed as having an ulcer

For CC(C)Cc1ccc(C(C)C(=O)O)cc1 (stereo not drawn) [Ibuprofen, 2-(p-isobutylphenyl)propionic acid], the “Proportion of subjects with Duodenal Ulcer” value ([1]; crude proportion) was 14/262 (5.3%);, the “Proportion of subjects with Gastric Ulcer” value ([1]; crude proportion) was 52/262 (19.8%); and the “Proportion of subjects with UGI Ulcer” value ([1]; crude proportion) was 61/262 (23.3%)*;. For the same compound, the “UGI Ulcer: Subjects with Low-dose Aspirin Use” value ([1]; crude proportion) was 10/32 (31.3%);, the “UGI Ulcer: Subjects with Prior Ulcer” value ([1]; crude proportion) was 4/15 (26.7%); and the “Proportion of subjects with Duodenal Ulcer” value [1, 4] was 5.3%. For the same compound, the “Proportion of subjects with Gastric Ulcer” value [1, 4] was 19.8%, the “Proportion of subjects with UGI Ulcer” value [1, 4] was 23.3% and the “Proportion of subjects with Duodenal Ulcer” value ([1]; life table estimate) was 7.1%. For the same compound, the “Proportion of subjects with Gastric Ulcer” value ([1]; life table estimate) was 25.3%, the “Proportion of subjects with UGI Ulcer” value ([1]; life table estimate) was 29.1%* and the “UGI Ulcer: Subjects with Low-dose Aspirin Use” value ([1]; life table estimate) was 33.3%. For the same compound, the “UGI Ulcer: Subjects with Prior Ulcer” value ([1]; life table estimate) was 27.3%, the “Proportion of subjects with Duodenal Ulcer” value [1, 5] was 7.1% and the “Proportion of subjects with Gastric Ulcer” value [1, 5] was 25.3%. For the same compound, the “Proportion of subjects with UGI Ulcer” value [1, 5] was 29.1%, the “Crude ulcer rate, UGI ulcer” value [1, 6] was 30.2% and the “Crude ulcer rate, gastric ulcers” value [1, 6] was 26.7%. For the same compound, the “NSAID associated serious GI complications, % of subjects” value ([1]; REDUCE-1, secondary efficacy endpoint) was “none”, the “AEs Leading to Discontinuation, Incidence (%)” value [2] was 7.1% and the “AEs by Severity: Life Threatening, Incidence (%)” value [2] was 0.0%. The “AEs by Severity: Moderate, Incidence (%)” value [2] was 21.7%, the “AEs by Severity: Severe, Incidence (%)” value [2] was 6.6% and the “Abdominal Pain Upper, Incidence (%)” value [2] was 1.9%. The “Any GI Event, Incidence (%)” value [2] was 29.7* %, the “Cardiac Disorders, Incidence (%)” value [2] was 0.5% and the “Constipation, Incidence (%)” value [2] was 3.8%. The “Deaths, Incidence %” value [2] was 0/0.0%, the “Diarrhea, Incidence (%)” value [2] was 4.2% and the “Dyspepsia, Incidence (%)” value [2] was 8.5** %. For the same compound, the “General Disorders/Administrative Site Conditions, Incidence (%)” value [2] was 3.8%, the “Hepatobiliary Disorders, Incidence (%)” value [2] was 0.0% and the “Hypertension, Incidence (%)” value [2] was 1.9%. The “Infections/Infestations, Incidence (%)” value [2] was 19.3%, the “Injury, Poisoning, Procedural Complications, Incidence (%)” value [2] was 3.8% and the “Investigations, Incidence (%)” value [2] was 2.4%. For the same compound, the “Musculoskeletal/connective Tissue Disorders, Incidence (%)” value [2] was 5.2%, the “Nausea, Incidence (%)” value [2] was 5.2% and the “Nervous System Disorders, Incidence (%)” value [2] was 4.7%. For the same compound, the “Renal and Urinary Disorders, Incidence (%)” value [2] was 0.0%, the “Respiratory, Thoracic and Mediastinal Disorders, Incidence (%)” value [2] was 4.7% and the “SAEs leading to discontinuation, Incidence %” value [2] was 2/0.9%. The “Subjects with at least one AE, Incidence (%)” value [2] was 54.7%, the “Total SAEs, Incidence %” value [2] was 4/1.9% and the “Withdrawals due to GI, Incidence (%)” value [2] was 5.2*** %. The “Proportion of subjects with Duodenal Ulcer” value [3, 7] was 9/190 (4.7%);, the “Proportion of subjects with Gastric Ulcer” value [3, 7] was 34/190 (17.9%); and the “Proportion of subjects with UGI Ulcer” value [3, 7] was 38/190 (20%);. The “UGI Ulcer: Subjects with Low-dose Aspirin Use” value [3, 7] was 6/23 (26.1%);, the “UGI Ulcer: Subjects with Prior Ulcer” value [3, 7] was 2/11 (18.2%); and the “Proportion of subjects with Duodenal Ulcer” value [3, 8] was 4.7%. For the same compound, the “Proportion of subjects with Gastric Ulcer” value [3, 8] was 17.9%, the “Proportion of subjects with UGI Ulcer” value [3, 8] was 20.0% and the “Proportion of subjects with Duodenal Ulcer” value [3, 9] was 6.6%. The “Proportion of subjects with Gastric Ulcer” value [3, 9] was 19.7%, the “Proportion of subjects with UGI Ulcer” value [3, 9] was 22.6% and the “UGI Ulcer: Subjects with Prior Ulcer” value [3, 9] was 20.0%. The “Proportion of subjects with Duodenal Ulcer” value [3, 10] was 6.6%, the “Proportion of subjects with Gastric Ulcer” value [3, 10] was 19.7% and the “Proportion of subjects with UGI Ulcer” value [3, 10] was 22.6%. For the same compound, the “Crude ulcer rate, UGI ulcers” value ([3]; REDUCE-2, early drop-outs imputed as treatment failures) was 25.3%, the “Crude ulcer rate, duodenal ulcer” value [3, 11] was 10.1% and the “Crude ulcer rate, gastric ulcer” value [3, 11] was 23.2%.
